Assay results reported in article PMC10787790, “Isatin-tethered halogen-containing acylhydrazone derivatives as monoamine oxidase inhibitor with neuroprotective effect” (Scientific Reports, 2024).

Columns and labels:
MAO-A [1] = conditions: halogenated pyrazoline, no reference given; cited from earlier work
MAO-A [2] = molecular target: T1, MAO-A (Homo sapiens, UniProt P21397); experiment: MAO-A inhibition assay (continuous, kynuramine); conditions: for remaining activity at 10 µM: read-out: Residual activity at 10 µM (%) MAO-A
T1 sequence (P21397 1-527): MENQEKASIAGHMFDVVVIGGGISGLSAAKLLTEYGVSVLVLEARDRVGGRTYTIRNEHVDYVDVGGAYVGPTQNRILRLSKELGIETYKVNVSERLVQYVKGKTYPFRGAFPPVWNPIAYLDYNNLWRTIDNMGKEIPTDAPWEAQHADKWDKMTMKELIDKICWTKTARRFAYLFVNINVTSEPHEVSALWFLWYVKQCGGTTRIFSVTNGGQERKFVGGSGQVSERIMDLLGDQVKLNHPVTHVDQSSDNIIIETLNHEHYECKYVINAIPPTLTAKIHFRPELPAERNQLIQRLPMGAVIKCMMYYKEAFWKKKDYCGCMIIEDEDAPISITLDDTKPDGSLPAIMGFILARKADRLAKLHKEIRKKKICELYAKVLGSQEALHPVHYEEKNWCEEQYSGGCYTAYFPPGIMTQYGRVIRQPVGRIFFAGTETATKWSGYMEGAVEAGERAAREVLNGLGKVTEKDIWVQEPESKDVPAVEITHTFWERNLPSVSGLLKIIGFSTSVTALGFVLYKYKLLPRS
Method: (§1) MAO-A and MAO-B activities were determined using 0.06 mM kynuramine and 0.3 mM benzylamine, respectively[39]. […] Concentrations of the substrates used were around 2.0 times of their Km values for the enzyme assay. The absorbance was measured using the continuous assay method described previously[40].
(§2) The selectivity index (SI) values of the compounds were calculated as follows: (IC50 of MAO-A)/(IC50 of MAO-B)[42].

MAO-B [3] = molecular target: T2, MAO-B (Homo sapiens, UniProt P27338); experiment: MAO-B inhibition assay (continuous, benzylamine); conditions: for SI (selectivity index): (IC50 of MAO-A)/(IC50 of MAO-B), MAO-B compared to MAO-A; for remaining activity at 10 µM: read-out: Residual activity at 10 µM (%) MAO-B
T2 sequence (P27338 1-520): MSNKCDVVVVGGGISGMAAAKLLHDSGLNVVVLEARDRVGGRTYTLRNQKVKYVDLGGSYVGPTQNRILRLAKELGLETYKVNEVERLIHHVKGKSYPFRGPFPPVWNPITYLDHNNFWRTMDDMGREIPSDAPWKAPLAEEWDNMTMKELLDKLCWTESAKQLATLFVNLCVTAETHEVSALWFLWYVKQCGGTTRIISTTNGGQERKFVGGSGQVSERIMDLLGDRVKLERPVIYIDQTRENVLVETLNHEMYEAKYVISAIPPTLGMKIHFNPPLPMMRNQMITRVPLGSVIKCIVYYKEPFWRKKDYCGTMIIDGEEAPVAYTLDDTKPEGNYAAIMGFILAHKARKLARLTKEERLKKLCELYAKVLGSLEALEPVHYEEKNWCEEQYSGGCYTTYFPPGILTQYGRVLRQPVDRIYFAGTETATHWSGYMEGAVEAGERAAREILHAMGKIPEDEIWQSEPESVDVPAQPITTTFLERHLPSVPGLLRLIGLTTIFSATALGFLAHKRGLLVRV
Method: as §1, §2

[4] = Parallel artificial membrane permeability assay (PAMPA), BBB; type: in vitro ADME; conditions: for Experimental Pe: pH 7.4; for Papp: pH 7.4, read-out: Experimental Pe
Method: The blood–brain barrier (BBB) permeation abilities of the four lead molecules were analyzed using the PAMPA method[44],[45]. The detailed procedure is explained in the Supplementary Data.
Using a microtiter plate with 96 wells and a Millipore filter plate with 96 wells (ipvh, 125 μm thick filter, 0.45 μm pore), which was then saturated with 0.1 mL of n-dodecane, a "sandwich" structure was created in PAMPA. Stock solutions of drug samples in DMSO were created at a 10 mM concentration. The stock solution was diluted in buffer at pH 7.4 before being added to a 96-well filter plate in order to achieve a final sample concentration (0.01, 0.1, and 1 mM) and keep the DMSO concentration at 1% (v/v). The final dilutions were divided into 270 μL for the donor wells and 200 μL of pH 7.4 buffer for the acceptor well. The donor plate was placed on the top of the acceptor filter plate to form a sandwich (comprising of a synthetic lipid membrane in the center, an aqueous receiver on […], and an aqueous donor carrying an analyte on the bottom.). The test substance diffuses from the donor well across the lipid membrane and into the acceptor well. The sandwich is said to have been intact when the penetration occurred. The drug concentration in the reference, donor, and receiver wells was measured using UV spectroscopy. The rate of penetration is calculated using the following expression.
Log Pe = -ln [1-CA /Equilibrium]/A× (1/VD + 1/VA) × t

ROS = ROS assay (DCF) in LPS-treated SH-SY5Y cells; type: cell-based, human
Method: (§3) Subcultures were performed every two days.
The OxiSelect Intracellular ROS Assay Kit (Cell Biolabs Inc., San Diego, CA, USA) was used to quantify the levels of the fluorescent probe 20,70-dichlorodihydrofluorescin diacetate (DCFH-DA).

CAT = experiment: Catalase (CAT) activity in LPS-induced SH-SY5Y cells; type: cell-based, human; conditions: 10 µM/mL
Method: as §3
CAT activity was determined according to Aebi[50]. A human CAT ELISA kit was purchased commercially (KrishGen Biosystems). Following treatment, the adherent cells were scraped off, suspended in cold PBS, sonicated, and placed on ice. The medium was then removed from each well. The 3 mL CAT assay combination comprised of extract (0.05 mL), phosphate buffer (1.5 mL, 100 mM buffer, pH 7.0), H2O2 (0.5 mL), and distilled water (0.95 mL). The absorbance decreased at 450 nm. CAT activity was reported in terms of ng/mL of H2O2 oxidized per min per gram[46]–[49].

MAO-B [5] = molecular target: T2, MAO-B; experiment: Reversibility study by dialysis, MAO-B
Method: Reversibility test was performed by using Dialyzer DiaEasy™ (6–8 kDa, BioVision, St. Grove, MA, USA).

TNF-α = TNF-α expression in LPS-induced SH-SY5Y cells; type: cell-based, human
NF-kB = NF-kB expression in LPS-induced SH-SY5Y cells; conditions: LPS 1 µg/mL 2 h, compound 24 h, SH-SY5Y
SOD = experiment: Superoxide dismutase (SOD) activity in LPS-induced SH-SY5Y cells; type: cell-based, human; conditions: 10 µM/mL
Method: Using a superoxide dismutase assay kit (KrishGen Biosystems, India), which measures the concentration of formazan crystals using a colorimetric assay, SOD activity was determined. In this test, a tetrazolium salt was used to detect the superoxide radicals produced by xanthine oxidase and hypoxanthine. After treatment, the medium was removed, centrifuged at 2000 rpm for 5 min at room temperature, and placed on ice. A diluted radical detector and lysed cell supernatant or a standard were applied to each well of a 96-well plate to evaluate SOD activity using an ELISA kit, according to the manufacturer’s instructions. The absorbance of the wells was then determined after 5 min at a wavelength of 450 nm using a microplate reader (Safire2, Tecan Group Ltd., Maennedorf, Switzerland).

MAO-B [6] = molecular target: T2, MAO-B; experiment: Enzyme kinetics, Lineweaver-Burk and secondary plots, MAO-B; type: biochemical; design: purchased Sigma-Aldrich
Method: Enzyme inhibition patterns and Ki values were determined by comparing Lineweaver–Burk (LB) plots and their secondary plots, respectively[40].

SH-SY5Y cells = experiment: MTT cytotoxicity assay; type: cell-based, human; conditions: 24 h
Method: as §3
The cells were grown in 96-well plates with 20,000 cells per well. Different compound concentrations were applied to the cells, and the treated cells were then left to incubate for 24 h. After applying 50 µL of MTT (0.5 mg/mL) to each well, the plates were incubated for 3 h, then 100 µL of DMSO was added to dissolve the purple formazan crystal, and an absorbance was measured at 570 nm using a microplate reader (ELX-800, BioTek, CA, USA). Compounds' growth inhibitory concentration (IC50) values were computed.

GPx = experiment: Glutathione peroxidase (GPx) activity in LPS-induced SH-SY5Y cells; type: cell-based, human; conditions: 10 µM/mL
Description: A GPx assay kit (KrishGen Biosystems) was used to evaluate the GPx activity. The kit uses a colorimetric assay to determine the quantity of GPx. Glutathione reductase (GR) mediates GPx activity Oxidized glutathione (GSSG) is produced via hydroperoxide reduction by GPx. This glutathione is recycled back to its reduced state by GR and NADPH. The NADPH to NADP + oxidation was accompanied by a decrease in absorbance at 450 nm (A450). When GPx activity was rate-limiting, the rate of decline in A450 was directly correlated with GPx activity. Following treatment, adherent cells were removed from the wells, suspended in cold PBS, sonicated, and frozen. In accordance with the ELISA kit’s instructions, the lysed cell supernatant, or standard, was applied to all 96 wells of a plate together with a diluted radical detector to assay the activity of GPx. A microplate reader was used to measure the absorbance of the wells after 5 min[46]–[49]. Results were obtained in ng/mL.

IL-6 = IL-6 expression in LPS-induced SH-SY5Y cells; type: cell-based, human
[7] = LPS 1 µg/mL 2 h, compound 24 h, SH-SY5Y

For CCOc1ccc(C2=NNC(c3ccc(Br)cc3)C2)cc1 (centres unmarked) [EH8], the IC50 (MAO-A [1]) is given as 4.31 µM.

Compound O=C1Nc2ccc(Br)cc2/C1=N/NC(=O)c1ccccc1 [IS1] has an IC50 (MAO-A [2]) of over 40 µM, a remaining activity at 10 µM (MAO-A [2]) of 83.1 ± 2.34% and an IC50 (MAO-B [3]) of 420 ± 28 nM. The “SI (selectivity index)” value (MAO-B [3]) was over 95.24 and the remaining activity at 10 µM (MAO-B [3]) was 22 ± 2.75%.

Work on O=C1Nc2ccc(Br)cc2/C1=N/NC(=O)c1ccc(Cl)cc1 [IS2] yielded an IC50 (MAO-A [2]) of 9.16 ± 0.324 µM, a remaining activity at 10 µM (MAO-A [2]) of 46.9 ± 2.73% and an IC50 (MAO-B [3]) of 269 ± 4 nM. The “SI (selectivity index)” value (MAO-B [3]) was 34.03 and the remaining activity at 10 µM (MAO-B [3]) was 1.18 ± 2.04%.

With O=C1Nc2ccc(Br)cc2/C1=N/NC(=O)c1ccc(Br)cc1 [IS3] the IC50 (MAO-A [2]) was 2.385 ± 0.018 µM, the remaining activity at 10 µM (MAO-A [2]) was 29.5 ± 0.34% and the IC50 (MAO-B [3]) was 514 ± 23 nM. For the same compound, the “SI (selectivity index)” value (MAO-B [3]) was 4.64 and the remaining activity at 10 µM (MAO-B [3]) was 1.04 ± 0.23%.

O=C1Nc2ccc(Br)cc2/C1=N/NC(=O)c1ccc(F)cc1 [IS4] showed an IC50 (MAO-A [2]) of 32.85 ± 0.134 µM, a remaining activity at 10 µM (MAO-A [2]) of 70.1 ± 1.93% and an IC50 (MAO-B [3]) of 7280 ± 1720 nM. The “SI (selectivity index)” value (MAO-B [3]) was 4.51 and the remaining activity at 10 µM (MAO-B [3]) was 42.5 ± 8.93%.

With O=C1Nc2ccccc2/C1=N/NC(=O)c1ccc(Cl)cc1 [IS6] the “CNS/BBB permeability in words” value [4] was “high permeability and CNS bioavailability”, the “Prediction (CNS permeation class)” value [4] was “CNS+ (Pe (10^−6 cm/s) > 4.00: CNS + (high permeation))” and the “Experimental Pe” value [4] was over 4e-06 cm/s. The Papp [4] was 4.86 ± 0.26 ×10⁻⁶ cm/s.

With O=C1Nc2ccccc2/C1=N/NC(=O)c1ccc(Br)cc1 [IS7] the “DCF intensity decrease at 10 µM” value (ROS; 10 µM/mL (10 µM), vs LPS-induced cells) was “effective DCF intensity decrease”, the “DCF expression (ROS) vs cells treated with LPS alone” value (ROS; LPS-induced SH-SY5Y) was “significantly inhibited (p < 0.0001)” and the “CAT (cellular anti-oxidant enzyme) effect” value (CAT) was “enhancing the enzyme activity”. For the same compound, the IC50 (MAO-A [2]) was 19.2 ± 5.96 µM, the remaining activity at 10 µM (MAO-A [2]) was 50.8 ± 7.29% and the “MAO-B relative activity, dialyzed (AD)” value (MAO-B [5]; […] IC50, 30 min pre-incubation, dialyzed) was 72.89%. For the same compound, the “MAO-B relative activity, undialyzed (AU)” value (MAO-B [5]; […] IC50, 30 min pre-incubation, undialyzed) was 28.65%, the “Reversibility of MAO-B inhibition” value (MAO-B [5]; dialysis) was “reversible-type inhibitors” and the “CNS/BBB permeability in words” value [4] was “high permeability and CNS bioavailability”. The “Prediction (CNS permeation class)” value [4] was “CNS+ (Pe (10^−6 cm/s) > 4.00: CNS + (high permeation))”, the “Experimental Pe” value [4] was over 4e-06 cm/s and the Papp [4] was 5.02 ± 0.19 ×10⁻⁶ cm/s. For the same compound, the IC50 (MAO-B [3]) was 82 ± 10 nM, the “SI (selectivity index)” value (MAO-B [3]) was 233.85 and the remaining activity at 10 µM (MAO-B [3]) was 3.2 ± 0.77%. The “Fold higher MAO-B inhibition than IS5” value (MAO-B [3]; relative to basic compound IS5) was 50.4 ×, the “TNF-alpha level vs LPS-treated group” value (TNF-α; [7]) was “significantly (p < 0.0001) reduced” and the “TNF-alpha level compared to IS13 and IS15” value (TNF-α; LPS-treated cell lines) was “significantly decreased”. For the same compound, the “NF-kB level vs LPS-treated group” value (NF-kB) was “significantly (p < 0.0001) reduced”, the “SOD (cellular anti-oxidant enzyme) effect” value (SOD) was “enhancing the enzyme activity” and the “Type of MAO-B inhibition” value (MAO-B [6]; LB plot) was “competitive”. The Ki (MAO-B [6]; secondary plot of LB slopes vs inhibitor concentration) was 44 ± 2 nM, the “Cell viability at 100 μM” value (SH-SY5Y cells; 100 μM) was “remarkably decreased cell viability” and the IC50 (SH-SY5Y cells; Homo sapiens) was 97.2 µM. The “GPx (cellular anti-oxidant enzyme) effect” value (GPx) was “enhancing the enzyme activity”, the “IL-6 level vs LPS-treated group” value (IL-6; [7]) was “significantly (p < 0.0001) reduced” and the “IL-6 level compared to IS13 and IS15” value (IL-6; LPS-treated cell lines) was “significantly decreased”.

For O=C1Nc2ccccc2/C1=N/NC(=O)c1ccc(F)cc1 [IS8], the IC50 (MAO-A [2]) was 35 µM, the remaining activity at 10 µM (MAO-A [2]) was 69.7 ± 3.22% and the IC50 (MAO-B [3]) was 25500 ± 2030 nM. It also gave a remaining activity at 10 µM (MAO-B [3]) of 67.4 ± 7.8%.
